Consider 28 compounds from ChEMBL document CHEMBL5096241, “Discovery of 3-Aminopyrazole Derivatives as New Potent and Orally Bioavailable AXL Inhibitors” (J Med Chem, 2022).

pIC50: −log10 of the molar value.

In the first assay the target is T1, Tyrosine-protein kinase receptor UFO (Homo sapiens, UniProt P30530).
T1 sequence (P30530 whole entry): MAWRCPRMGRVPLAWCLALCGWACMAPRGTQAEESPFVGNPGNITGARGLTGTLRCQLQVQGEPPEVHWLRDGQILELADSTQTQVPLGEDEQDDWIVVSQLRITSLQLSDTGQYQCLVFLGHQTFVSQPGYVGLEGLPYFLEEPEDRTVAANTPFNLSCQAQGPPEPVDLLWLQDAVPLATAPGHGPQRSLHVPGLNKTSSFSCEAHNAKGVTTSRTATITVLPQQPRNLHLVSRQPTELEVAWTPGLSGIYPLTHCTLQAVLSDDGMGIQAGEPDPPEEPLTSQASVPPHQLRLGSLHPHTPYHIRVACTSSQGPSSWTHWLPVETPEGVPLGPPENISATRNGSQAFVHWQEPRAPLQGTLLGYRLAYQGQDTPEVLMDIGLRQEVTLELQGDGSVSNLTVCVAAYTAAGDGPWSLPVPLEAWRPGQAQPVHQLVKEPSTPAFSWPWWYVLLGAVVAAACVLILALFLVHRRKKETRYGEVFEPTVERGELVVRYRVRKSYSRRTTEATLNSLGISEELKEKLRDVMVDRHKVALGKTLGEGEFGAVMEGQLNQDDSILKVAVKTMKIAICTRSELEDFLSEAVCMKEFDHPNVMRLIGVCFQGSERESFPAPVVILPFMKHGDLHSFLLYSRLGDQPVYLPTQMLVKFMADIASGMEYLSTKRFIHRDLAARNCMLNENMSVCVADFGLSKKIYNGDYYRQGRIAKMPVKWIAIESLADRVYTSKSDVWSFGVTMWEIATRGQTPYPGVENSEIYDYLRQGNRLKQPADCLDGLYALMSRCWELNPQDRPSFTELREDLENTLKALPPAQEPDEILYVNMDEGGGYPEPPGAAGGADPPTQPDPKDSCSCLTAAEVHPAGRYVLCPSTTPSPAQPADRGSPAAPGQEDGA
As to the kind of experiment: Inhibition of recombinant AXL (unknown origin) using poly (Glu,Tyr) 4:1 as substrate incubated for 60 mins in presence of ATP by ELISA.
Settings: not given
In general terms: In an ELISA, binding on a coated surface is turned into a signal by an enzyme label.
With `COc1cc2c(Oc3ccc(Nc4nn(C)cc4C(=O)NC4CCCCC4)cc3F)ccnc2cc1OCCCN1CCN(C)CC1`, the pIC50 (as a rule, the IC50 on a negative log10 scale, so that one unit is a factor of ten) was 8.54. `CNC(=O)c1cn(C)nc1Nc1ccc(Oc2ccnc3cc(OC)c(OC)cc23)c(F)c1`: the pIC50 was below 6.00.

Regarding `COc1cc2nccc(Oc3ccc(Nc4nn(C)cc4C(=O)NC4CCCC4)cc3F)c2cc1OC`, the pIC50 was 7.56. In the case of `CCNC(=O)c1cn(C)nc1Nc1ccc(Oc2ccnc3cc(OC)c(OC)cc23)c(F)c1`, the pIC50 was 6.62. Consider `COc1cc2nccc(Oc3ccc(Nc4nn(C)cc4C(=O)Nc4cccc(F)c4)cc3F)c2cc1OC`, for which the pIC50 was 6.58. Still for that read-out and setting: then `COc1cc2nccc(Oc3ccc(Nc4nn(C)cc4C(=O)NC4CCCCC4)cc3OC)c2cc1OC`, with 7.39; and `COc1cc2nccc(Oc3ccc(Nc4nn(C)cc4C(=O)N4CCCCC4)cc3F)c2cc1OC`, with below 6.00.

As for `COc1cc2nccc(Oc3ccc(Nc4nn(C)cc4C(=O)NC(C)(C)C)cc3F)c2cc1OC`, the pIC50 was 6.85.

As for `COc1cc2nccc(Oc3ccc(Nc4nn(C)cc4C(=O)Nc4ccccc4)cc3F)c2cc1OC`, the pIC50 is 7.60. With `COc1ccc(NC(=O)c2cn(C)nc2Nc2ccc(Oc3ccnc4cc(OC)c(OC)cc34)c(F)c2)cc1`, the pIC50 is 7.06. For `COc1cc2nccc(Oc3ccc(Nc4nn(C)cc4C(=O)Nc4ccc(OC(F)F)cc4)cc3F)c2cc1OC`, the pIC50 is 7.19. Consider `COc1cc2c(Oc3ccc(Nc4nn(C)cc4C(=O)NC4CCCCC4)cc3F)ccnc2cc1OCCCN1CCCCC1`, for which the pIC50 was 8.25. With `COc1cc2c(Oc3ccc(Nc4nn(C)cc4C(=O)NC4CCCCC4)cc3F)ccnc2cc1OCCCN(C)C`, the pIC50 was 8.49. As to `COc1cc2nccc(Oc3ccc(Nc4nn(C)cc4C(=O)NC4CCCCCCC4)cc3F)c2cc1OC`, the pIC50 was 7.90. With `COCCCOc1cc2nccc(Oc3ccc(Nc4nn(C)cc4C(=O)NC4CCCCC4)cc3F)c2cc1OC`, the pIC50 is 8.07. As for `COc1cc2nccc(Oc3ccc(Nc4nn(C)cc4C(=O)Nc4ccc(F)cc4)cc3F)c2cc1OC`, the negative-log IC50 (pIC50) was 7.40. On to `COc1cc2nccc(Oc3ccc(Nc4nn(C)cc4C(=O)NC4CC4)cc3F)c2cc1OC`, for which the pIC50 is 6.23. Consider `COc1cc2nccc(Oc3ccc(Nc4nn(C)cc4C(=O)NC4CCOCC4)cc3F)c2cc1OC`, for which the pIC50 is 6.92. On to `COc1cc2nccc(Oc3ccc(Nc4nn(C)cc4C(=O)NC4CCCCC4)cc3)c2cc1OC`, for which the pIC50 is 7.46. In the case of `COc1cc2nccc(Oc3ccc(Nc4nn(C)cc4C(=O)Nc4ccc(OC(F)(F)F)cc4)cc3F)c2cc1OC`, the pIC50 was below 6.00. Turning to `COc1cc2nccc(Oc3ccc(Nc4nn(C)cc4C(=O)Nc4ccc(C)cc4)cc3F)c2cc1OC`, the pIC50 was 7.64. The same measure, in the same setting: the same measure for `COc1cc2nccc(Oc3ccc(Nc4nn(C)cc4C(=O)NC4CCCCC4)cc3C)c2cc1OC`: 7.39; for `COCCOc1cc2nccc(Oc3ccc(Nc4nn(C)cc4C(=O)NC4CCCCC4)cc3F)c2cc1OC`: 8.11. Still for that read-out and setting: then `COc1cc2nccc(Oc3ccc(Nc4nn(C)cc4C(=O)NC4CCCCC4)cc3F)c2cc1OC`, with 7.94; and `COc1cc2nccc(Oc3ccc(Nc4nn(C)cc4C(=O)Nc4ccc(C(C)C)cc4)cc3F)c2cc1OC`, with below 6.00; and `COc1cc2nccc(Oc3ccc(Nc4nn(C)cc4C(=O)NC4C5CC6CC(C5)CC4C6)cc3F)c2cc1OC` (stereo not given), with 7.88.

Turning to `COc1cc2nccc(Oc3ccc(Nc4nn(C)cc4C(=O)NC4CCC(F)(F)CC4)cc3F)c2cc1OC`, the pIC50 is 7.19.

The next assay has as its system BaF3. As to the kind of experiment: Antiproliferative activity against mouse BaF3 cells transfected with TEL-AXL assessed as inhibition of cell growth incubated for 72 hrs. The class given is functional, cell-based. To be noted: BaF3, 72 h.
Turning to `COc1cc2c(Oc3ccc(Nc4nn(C)cc4C(=O)NC4CCCCC4)cc3F)ccnc2cc1OCCCN1CCN(C)CC1`, the pIC50 is 8.05. For `COc1cc2c(Oc3ccc(Nc4nn(C)cc4C(=O)NC4CCCCC4)cc3F)ccnc2cc1OCCCN(C)C`, the pIC50 is 7.94.

For `Nc1nc(Nc2ccc3c(c2)CCC(N2CCCC2)CC3)nn1-c1cc2c(nn1)-c1ccccc1CCC2` (single isomer, unassigned) [BEMCENTINIB], the pIC50 is 7.01.
